Like-named read-outs stand apart in the source and are kept apart here. Values belong to the compound of their own block, whether it stands above or below them.
Assays:
T. cruzi = settings: cited from earlier work
[1] = tested on: L. infantum reference strain (MHOM/BR/2002/LPC-RPV); assay: Growth inhibition of L. infantum reference strain promastigotes (resazurin); settings: for EC50: read-out: EC50 ± SD Lin–Ref
[2] = cited from earlier work
fibroblasts (NCTC929) = assay: Cytotoxicity in fibroblasts; format: cell-based
Description: Table 5 Cytotoxicity and selectivity index of reference drugs and selected molecules. | column: EC50 ± SD (µM) ^a / Fibroblasts

L. infantum amastigote = assay: Single dose study in the amastigote form of L. infantum; format: cell-based; settings: Leishmania infantum, single dose 10 µM
[3] = tested on: L. infantum veterinary isolate (MCAN_UY_2015_gPL8); assay: Growth inhibition of L. infantum veterinary isolate promastigotes (resazurin); settings: for EC50: read-out: EC50 ± SD Lin–Vet
[4] = Acute oral toxicity (up and down test); settings: mice
[5] = mice, up and down test, cited from earlier work
L. amazonensis [6] = assay: Growth inhibition of L. amazonensis promastigotes (resazurin); settings: for EC50: read-out: EC50 ± SD L. amaz
L. braziliensis = settings: read-out: EC50 ± SD L. brazils, cited from earlier work
[7] = design: method as in PMID 24749923, PMID 26492824, PMID 25512408; settings: ref [13],[14],[15]; cited from earlier work
[8] = cited from earlier work; remark: listed apart in the source
L. amazonensis [9] = assay: Murine model of cutaneous Leishmaniasis; settings: BALB/c mice, oral, when treatment begins (Figure 2C)
[10] = tested on: J774.1 murine macrophages; assay: Nonspecific cytotoxicity in murine macrophages (MTT)
T. brucei = assay: Growth inhibition of T. brucei bloodstream form trypomastigotes (resazurin); format: cell-based, Trypanosoma brucei brucei; settings: for EC50: read-out: EC50 ± SD T. brucei
Description: Compounds were dissolved in dimethylsulfoxide (DMSO).

[11] = Liver fraction stability (cytosolic and microsomal fraction of rat hepatocytes, TLC); format: in vitro ADME; settings: rat hepatocyte cytosolic and microsomal fractions, 37 °C
Description: For the determination of the stability in the different fractions, (cytosolic and microsomal of rat hepatocytes) the different proteins present in them were used. The fractions were prepared according to the previously reported protocol. […] The final concentration of the molecules in the aqueous medium was 400 µM and prepared from a stock in DMSO of 40 mM. The solutions were homogenized and incubated at 37 °C at 10 min, 30 min, 1 h, 2 h, 3 h and 4 h. (by TLC). For this, it was incubated at 37 °C in a volume of 1 mL: 2.5 µL of 30 mM Magnesium Chloride (MgCl); 2.5 µL of 40 mM Nicotinamide Adenosine Dinucleotide Phosphate (NADP+); 5 µL of 350 mM Glucose 6- Phosphate (Glu6P); 5 µL of Glucose 6- phosphate dehydrogenase (Glu6PD) 50 U/mL, 5 µL of the stock of 40 mM compounds and the volume of the Phosphate Buffer (pH = 7) must be such that cytosolic (CF) and microsomal (MF) fraction FC and FM present a final protein concentration of 0.1 mg/mL. After that, the stability of compounds 796 and 1019 in the cytosolic (FCF) and microsomal (FMF) fraction of rat hepatocytes was evaluated at different times (1–4 h). Thin-layer chromatography of ethyl acetate extracts was conducted to evaluate the presence of decomposition products. The mobile phase used for these TLCs was n-hexane: ethyl acetate (7: 3).

[12] = Table 3, thiazolidene hydrazines, ref [13],[16],[19],[23],[25], read-out: EC50 ± SD T. cruzi
[13] = Trypanosoma brucei, Table 3, thiazolidene hydrazines
[14] = Table 4, curcuminoids, ref [14], read-out: EC50 ± SD T. cruzi
[15] = Table 4, curcuminoids, L. infantum reference strain
[16] = read-out: EC50 ± SD Fibroblasts
[17] = Table 4, curcuminoids, L. infantum veterinary isolate
[18] = Table 4, curcuminoids, ref [14]
[19] = read-out: EC50 ± SD MΦ, murine macrophages, footnote: J774.1 macrophages or differentiated THP-1 monocytes

Structure (SMILES): C=CCNC(=S)NN=CC=Cc1ccc(C)o1 [Compound 263]
- EC50 (T. cruzi; [12]): 5 ± 1 µM
- EC50 ([1]; Table 3, thiazolidene hydrazines, L. infantum reference strain): < 0.3 µM

Structure (SMILES): C=CCn1c(-c2ccc(Cl)cc2)cs\c1=N/N=C/C=C/c1ccco1 [Compound 266]
- AMES test, mutagenic capacity ([2]; previous works, ref [13],[16]): negative
- Ames Test (mutagenicity) ([2]; ref [13],[14],[15]): no
- EC50 (fibroblasts (NCTC929); NCTC-929, read-out: EC50 ± SD Fibroblasts): 405 ± 10 µM
- inhibition at 10 µM (L. infantum amastigote): 69%
- Selectivity Index MΦ/Lin–Vet ([3]; EC50 mammalian cell line/EC50 L. infantum veterinary isolate): 7
- EC50 ([3]; Leishmania infantum): 9 ± 1 µM
- EC50 (T. cruzi; [12]): 1.6 ± 0.5 µM
- EC50 (T. cruzi; amastigotes, multiple strains, ref [13],[14],[15], read-out: EC50 in vitro anti-T. cruzi, amastigotes): > 0.25 µM
- survival in the acute toxicity model in vivo [4]: 100%
- acute toxicity LD50 ([5]; previously evaluated, ref [13],[16]): > 2000 mg/kg of weight
- Acute oral toxicity LD50 ([5]; ref [13],[14],[15]): LD50 > 2000 mg/kg in mice
- Selectivity Index MΦ/L. amaz (L. amazonensis [6]; EC50 mammalian cell line/EC50 L. amazonensis): 9
- EC50 (L. amazonensis [6]; Leishmania amazonensis): 7 ± 1 µM
- EC50 (L. braziliensis; Table 3, thiazolidene hydrazines, ref [13],[16],[19],[23],[25]): 20 ± 2 µM
- Selectivity Index MΦ/Lin–Ref ([1]; EC50 mammalian cell line/EC50 L. infantum reference strain): 30
- EC50 ([1]; Leishmania infantum): 2 ± 0.2 µM
- Stability in vitro (microsomal, plasma, other solutions) [7]: high
- micronucleus test, genotoxicity ([8]; previous works, ref [13],[16]): not genotoxic
- Micronucleus test in mice (Genotoxicity) ([8]; ref [13],[14],[15]): no
- diameter of the paw (L. amazonensis [9]): begins to decrease
- EC50 ([10]; Mus musculus, J774.1, read-out: EC50 ± SD MΦ): 60 ± 6 µM
- EC50 (T. brucei; [13]): 5 ± 1 µM

- EC50 [1, 15]: < 0.3 µM
- EC50 (T. brucei; Table 4, curcuminoids): 17 ± 2 µM
Structure (SMILES): O=C(C=CC=Cc1ccco1)C=CC=Cc1ccco1 [Compound 793]
- EC50 (T. cruzi; [14]): 5 ± 0.7 µM

- metabolic stability: time compound detected / degraded [11]: < 1 h
- EC50 [3, 17]: 10 ± 2 µM
- EC50 (L. amazonensis [6]; Table 4, curcuminoids): 10 ± 6 µM
- EC50 [1, 15]: 5 ± 1 µM
- EC50 (T. brucei; Table 4, curcuminoids): 1.8 ± 0.5 µM
Structure (SMILES): O=C(C=Cc1ccco1)C=Cc1ccco1 [Compound 795]
- EC50 (fibroblasts (NCTC929); [16]): 114 ± 6 µM
- EC50 (T. cruzi; [14]): 24 ± 2 µM
- EC50 (L. braziliensis; [18]): 6 ± 2 µM
- EC50 [10, 19]: 115 ± 2 µM

Structure (SMILES): O=C(C=CC=Cc1ccccc1)C=CC=Cc1ccccc1 [Compound 797]
- EC50 (T. cruzi; [14]): 11 ± 2 µM

- EC50 [1, 15]: 3 ± 0.5 µM
Structure (SMILES): O=C(C=CC=Cc1cccs1)C=CC=Cc1cccs1 [Compound 798]
- EC50 (T. cruzi; [14]): 13 ± 1 µM
- EC50 (L. braziliensis; [18]): 19 ± 5 µM

- metabolic stability: time compound detected / degraded [11]: < 1 h
- EC50 [3, 17]: 12 ± 3 µM
- EC50 (L. amazonensis [6]; Table 4, curcuminoids): 5 ± 1 µM
- EC50 [1, 15]: < 0.3 µM
- EC50 (T. brucei; Table 4, curcuminoids): 1.7 ± 0.5 µM
Structure (SMILES): O=C1C(=Cc2ccccc2)CCCC1=Cc1ccccc1 [Compound 799]
- EC50 (T. cruzi; [14]): 5 ± 1 µM
- EC50 (L. braziliensis; [18]): 4.2 ± 0.9 µM
- EC50 [10, 19]: 115 ± 8 µM

- EC50 (T. brucei; Table 4, curcuminoids): 15 ± 1 µM
Structure (SMILES): O=C1C(=CC=Cc2ccccc2)CCCC1=CC=Cc1ccccc1 [Compound 800]
- EC50 (T. cruzi; [14]): 14 µM

- EC50 (L. amazonensis [6]; Table 4, curcuminoids): 16 ± 2 µM
- EC50 [1, 15]: 3 ± 1 µM
Structure (SMILES): CC(C=CC(=O)C=CC(C)=Cc1ccco1)=Cc1ccco1 [Compound 809]
- EC50 (fibroblasts (NCTC929); [16]): 543 ± 6 µM
- growth inhibitory / trypanosomicidal effect on the L. infantum canine-derived isolate [3]: no trypanosomicidal effect
- EC50 (T. cruzi; [14]): 8 ± 2 µM
- EC50 (L. braziliensis; [18]): 6 ± 1 µM
- EC50 [10, 19]: 33 ± 8 µM
- trypanosomicidal effect on T. brucei (T. brucei): no trypanosomicidal effect

- EC50 (T. brucei; [13]): 14 ± 3 µM
Structure (SMILES): C=CCn1c(-c2ccc(Cl)cc2)cs\c1=N/N=C/C(C)=C/c1ccco1 [Compound 873]
- EC50 (T. cruzi; [12]): 0.09 ± 0.02 µM

Structure (SMILES): C=CCn1c(-c2ccc(Cl)cc2)csc1=NN=Cc1ccsc1 [Compound 877]
- EC50 (T. cruzi; [12]): 15 ± 3 µM
- EC50 (T. brucei; Table 3, thiazolidene hydrazines): 10 ± 1 µM

- EC50 (T. brucei; [13]): 5 ± 1 µM
Structure (SMILES): Clc1ccc(-c2csc(N/N=C/C=C/c3ccco3)n2)cc1 [Compound 901]
- EC50 (T. cruzi; [12]): 1.2 ± 0.3 µM

— PMC8308625, “Preclinical Studies in Anti-Trypanosomatidae Drug Development” (Pharmaceuticals, 2021)
